# The supplement of paper PMC10331698
# ± gives the standard deviation of the averaged measurements.
# Experiments:
# Test in all cases: level (log10 ratio to DMSO vehicle control); higher = higher biomarker level / cell amount than vehicle control
# Details in all cases: in DMSO
# [1] = compound: FC(F)(F)C(F)(F)CNCC(F)(F)C(F)(F)F [Bis(1H,1H-perfluoropropyl)amine]
# Protocol: (§1)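 BioMAP Diversity Plus panel of 12 human primary cell co-culture systems (3C, 4H, LPS, SAg, BT, BF4T, BE3C, CASM3C, HDF3CGF, KF3CT, MyoF, Mphg). Compounds were added 1 h before stimulation and left for 24 h (MyoF 48 h; BT 72 h for soluble read-outs or 6 d for IgG). Biomarkers were read by ELISA, cytotoxicity by SRB, PBMC viability and proliferation by Alamar Blue. Each well value was divided by the mean of 8 DMSO control wells on the same plate and log10 transformed; duplicate blinded samples were tested at 4 concentrations.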
# Nonafluoropentanamide = compound: NC(=O)C(F)(F)C(F)(F)C(F)(F)C(F)(F)F [Nonafluoropentanamide]
# Protocol: as §1
# [2] = compound: O=C(O)C(F)(F)C(F)(F)C(F)(F)C(F)(F)C(F)(F)C(F)(F)C(F)(F)C(F)(F)C(F)(F)C(F)F [11-H-Perfluoroundecanoic acid]
# Protocol: as §1
# [3] = compound: O=C(O)C=CC(F)(C(F)(F)F)C(F)(F)F [3-(Perfluoroisopropyl)-2-propenoic acid]
# Protocol: as §1
# [4] = compound: O=S(=O)(O)C(F)(F)C(F)(F)C(F)(F)C(F)(F)C(F)(F)C(F)(F)C(F)(F)C(F)(F)C(F)(F)C(F)(F)F [Sodium perfluorodecanesulfonate]
# Protocol: as §1
# Hexafluoroamylene glycol = compound: OCC(F)(F)C(F)(F)C(F)(F)CO [Hexafluoroamylene glycol]
# Protocol: as §1
Test System,level (log10) ([1]; 6700 nM),level (log10) ([1]; 20000 nM),level (log10) ([1]; 60000 nM),level (log10) (Nonafluoropentanamide; 6700 nM),level (log10) (Nonafluoropentanamide; 20000 nM),level (log10) (Nonafluoropentanamide; 60000 nM),level (log10) ([2]; 6700 nM),level (log10) ([2]; 20000 nM),level (log10) ([3]; 6700 nM),level (log10) ([3]; 20000 nM),level (log10) ([3]; 60000 nM),level (log10) ([4]; 1500 nM),level (log10) ([4]; 4400 nM),level (log10) ([4]; 13000 nM),level (log10) ([4]; 40000 nM),level (log10) (Hexafluoroamylene glycol; 6700 nM),level (log10) (Hexafluoroamylene glycol; 20000 nM),level (log10) (Hexafluoroamylene glycol; 60000 nM)
BE3C:uPA,-0.0155 ± 0.0064,-0.0185 ± 0.0092,-0.003 ± 0.013,0.0115 ± 0.016,0.009 ± 0.0099,0.0105 ± 0.0078,-0.005 ± 0.02,-0.211 ± 0.029,-0.0045 ± 0.005,-0.001 ± 0.0057,0.0045 ± 0.0021,-0.027 ± 0.0057,-0.032 ± 0.034,-0.019 ± 0.017,-0.051 ± 0.027,-0.0055 ± 0.0078,-0.013 ± 0.0014,-0.004
4H:CCL26/Eotaxin-3,0.06 ± 0.045,0.0245 ± 0.059,0.041 ± 0.064,-0.0005 ± 0.0035,0.0195 ± 0.00071,0.066 ± 0.017,-0.0435 ± 0.012,-0.0535 ± 0.037,-0.011 ± 0.0014,-0.011 ± 0.0014,0.016 ± 0.0085,-0.038 ± 0.0085,-0.052 ± 0.0014,-0.0885 ± 0.037,-0.129 ± 0.063,0.0655 ± 0.0021,0.0725 ± 0.015,0.0585 ± 0.0064
4H:CD62P/P-selectin,-0.0155 ± 0.025,-0.02 ± 0.0028,0.005 ± 0.013,-0.0135 ± 0.043,-0.0075 ± 0.029,0.0075 ± 0.05,0.0165 ± 0.0092,0.035 ± 0.031,-0.001 ± 0.02,-0.0105 ± 0.012,0.023 ± 0.0085,-0.0165 ± 0.021,0.034 ± 0.018,0.064 ± 0.03,0.08 ± 0.033,-0.029 ± 0.095,0.014 ± 0.058,-0.0385 ± 0.0021
HDF3CGF:CXCL11/I-TAC,-0.0065 ± 0.0092,-0.0045 ± 0.013,0.0195 ± 0.035,-0.0095 ± 0.021,0.009 ± 0.024,-0.0155 ± 0.011,-0.127 ± 0.023,-0.2405 ± 0.0021,-0.004 ± 0.0014,0.015 ± 0.025,0.002 ± 0.021,-0.0205 ± 0.029,-0.0225 ± 0.0092,0.0785 ± 0.013,0.092 ± 0.0042,0.001 ± 0.04,-0.015 ± 0.088,-0.044 ± 0.1
